According to patent US9149038B2, “4-amino-6-(heterocyclic)picolinates and 6-amino-2-(heterocyclic)pyrimidine-4-carboxylates and their use as herbicides” (Dow AgroSciences LLC, priority 2013, dated 2015):
Read-outs that look alike come from different tables or passages of the source.

How the values were obtained:
[1] = test system: Key Broadleaf Weed and Crop Species; test: Post-Emergent Test II: postemergent herbicidal activity, visual rating after 14 d (Table 7); format: in vivo; settings: post-emergence, 336 h; for pest or weed control at 35 g/ha: 35 g ai/ha; for pest or weed control at 70 g/ha: 70 g ai/ha; for pest or weed control at 140 g/ha: 140 g ai/ha
Procedure, shortened: (§1)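 Scoring is visual, 0-100, at 14 d after application, comparing treated with untreated plants. Application: overhead track spray at 187 L/ha onto seedlings at 1-2 true leaves, in surfactant/crop-oil carrier.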

[2] = test system: Key Grass and Sedge Weeds as well as Grass Crops; test: Post-Emergent Test II: postemergent herbicidal activity, visual rating after 14 d (Table 8); format: in vivo; settings: post-emergence, 336 h; for pest or weed control at 35 g/ha: 35 g ai/ha; for pest or weed control at 70 g/ha: 70 g ai/ha; for pest or weed control at 140 g/ha: 140 g ai/ha
Procedure, shortened: as §1

[3] = lambsquarters (Chenopodium album), read-out: Visual Growth Reduction (%) 14 Days After Application CHEAL
[4] = oilseed rape, canola (Brassica napus), read-out: Visual Growth Reduction (%) 14 Days After Application BRSNN
[5] = redroot pigweed (Amaranthus retroflexus), read-out: Visual Growth Reduction (%) 14 Days After Application AMARE
[6] = sunflower (Helianthus annuus), read-out: Visual Growth Reduction (%) 14 Days After Application HELAN
[7] = velvetleaf (Abutilon theophrasti), read-out: Visual Growth Reduction (%) 14 Days After Application ABUTH
[8] = wild poinsettia (Euphorbia heterophylla), read-out: Visual Growth Reduction (%) 14 Days After Application EPHHL
[9] = barnyardgrass (Echinochloa crus-galli), read-out: Visual Growth Reduction (%) 14 Days After Application ECHCG
[10] = giant foxtail (Setaria faberi), read-out: Visual Growth Reduction (%) 14 Days After Application SETFA
[11] = maize, corn (Zea mays), read-out: Visual Growth Reduction (%) 14 Days After Application ZEAMX
[12] = rice (Oryza sativa), read-out: Visual Growth Reduction (%) 14 Days After Application ORYSA
[13] = wheat, spring (Triticum aestivum), read-out: Visual Growth Reduction (%) 14 Days After Application TRZAS
[14] = yellow nutsedge (Cyperus esculentus), read-out: Visual Growth Reduction (%) 14 Days After Application CYPES

Compound: COC(=O)c1nc(-c2ccc3c(c2)OC(F)(F)O3)nc(N)c1OC [Compound 62]
- pest or weed control at 35 g/ha [1, 3]: 0 to 29%
- pest or weed control at 70 g/ha [1, 3]: 0 to 29%
- pest or weed control at 140 g/ha [1, 3]: 0 to 29%
- pest or weed control at 35 g/ha [1, 4]: 45 to 59%
- pest or weed control at 70 g/ha [1, 4]: 45 to 59%
- pest or weed control at 140 g/ha [1, 4]: 60 to 74%
- pest or weed control at 35 g/ha [1, 5]: 0 to 29%
- pest or weed control at 70 g/ha [1, 5]: 0 to 29%
- pest or weed control at 140 g/ha [1, 5]: 0 to 29%
- pest or weed control at 35 g/ha [1, 6]: 85 to 94%
- pest or weed control at 70 g/ha [1, 6]: 75 to 84%
- pest or weed control at 140 g/ha [1, 6]: 95 to 100%
- pest or weed control at 35 g/ha [1, 7]: 45 to 59%
- pest or weed control at 70 g/ha [1, 7]: 85 to 94%
- pest or weed control at 140 g/ha [1, 7]: 85 to 94%
- pest or weed control at 35 g/ha [1, 8]: 95 to 100%
- pest or weed control at 70 g/ha [1, 8]: 95 to 100%
- pest or weed control at 140 g/ha [1, 8]: 95 to 100%
- pest or weed control at 35 g/ha [2, 9]: 85 to 94%
- pest or weed control at 70 g/ha [2, 9]: 85 to 94%
- pest or weed control at 140 g/ha [2, 9]: 95 to 100%
- pest or weed control at 35 g/ha [2, 10]: 0 to 29%
- pest or weed control at 70 g/ha [2, 10]: 30 to 44%
- pest or weed control at 140 g/ha [2, 10]: 60 to 74%
- pest or weed control at 35 g/ha [2, 11]: 95 to 100%
- pest or weed control at 70 g/ha [2, 11]: 95 to 100%
- pest or weed control at 140 g/ha [2, 11]: 95 to 100%
- pest or weed control at 35 g/ha [2, 12]: 0 to 29%
- pest or weed control at 70 g/ha [2, 12]: 0 to 29%
- pest or weed control at 140 g/ha [2, 12]: 0 to 29%
- pest or weed control at 35 g/ha [2, 13]: 0 to 29%
- pest or weed control at 70 g/ha [2, 13]: 0 to 29%
- pest or weed control at 140 g/ha [2, 13]: 0 to 29%
- pest or weed control at 35 g/ha [2, 14]: 95 to 100%
- pest or weed control at 70 g/ha [2, 14]: 95 to 100%
- pest or weed control at 140 g/ha [2, 14]: 95 to 100%

Compound: COC(=O)c1nc(-c2ccc3c(c2)OC(C)(C)O3)nc(N)c1Cl [Compound 55]
- pest or weed control at 35 g/ha [1, 3]: 45 to 59%
- pest or weed control at 70 g/ha [1, 3]: 60 to 74%
- pest or weed control at 140 g/ha [1, 3]: 75 to 84%
- pest or weed control at 35 g/ha [1, 4]: 0 to 29%
- pest or weed control at 70 g/ha [1, 4]: 0 to 29%
- pest or weed control at 140 g/ha [1, 4]: 0 to 29%
- pest or weed control at 35 g/ha [1, 5]: 45 to 59%
- pest or weed control at 70 g/ha [1, 5]: 85 to 94%
- pest or weed control at 140 g/ha [1, 5]: 95 to 100%
- pest or weed control at 35 g/ha [1, 6]: 45 to 59%
- pest or weed control at 70 g/ha [1, 6]: 60 to 74%
- pest or weed control at 140 g/ha [1, 6]: 75 to 84%
- pest or weed control at 35 g/ha [1, 7]: 75 to 84%
- pest or weed control at 70 g/ha [1, 7]: 75 to 84%
- pest or weed control at 140 g/ha [1, 7]: 75 to 84%
- pest or weed control at 35 g/ha [1, 8]: 95 to 100%
- pest or weed control at 70 g/ha [1, 8]: 95 to 100%
- pest or weed control at 140 g/ha [1, 8]: 95 to 100%
- pest or weed control at 35 g/ha [2, 9]: 75 to 84%
- pest or weed control at 70 g/ha [2, 9]: 75 to 84%
- pest or weed control at 140 g/ha [2, 9]: 75 to 84%
- pest or weed control at 35 g/ha [2, 10]: 75 to 84%
- pest or weed control at 70 g/ha [2, 10]: 85 to 94%
- pest or weed control at 140 g/ha [2, 10]: 85 to 94%
- pest or weed control at 35 g/ha [2, 11]: 60 to 74%
- pest or weed control at 70 g/ha [2, 11]: 60 to 74%
- pest or weed control at 140 g/ha [2, 11]: 60 to 74%
- pest or weed control at 35 g/ha [2, 12]: 0 to 29%
- pest or weed control at 70 g/ha [2, 12]: 0 to 29%
- pest or weed control at 140 g/ha [2, 12]: 0 to 29%
- pest or weed control at 35 g/ha [2, 13]: 0 to 29%
- pest or weed control at 70 g/ha [2, 13]: 0 to 29%
- pest or weed control at 140 g/ha [2, 13]: 0 to 29%
- pest or weed control at 35 g/ha [2, 14]: 0 to 29%
- pest or weed control at 70 g/ha [2, 14]: 0 to 29%
- pest or weed control at 140 g/ha [2, 14]: 0 to 29%

Compound: COC(=O)c1nc(-c2cc3c(cc2F)OC(F)(F)O3)c(F)c(N)c1F [Compound 21]
- pest or weed control at 35 g/ha [1, 3]: 0 to 29%
- pest or weed control at 70 g/ha [1, 3]: 0 to 29%
- pest or weed control at 140 g/ha [1, 3]: 0 to 29%
- pest or weed control at 35 g/ha [1, 4]: 0 to 29%
- pest or weed control at 70 g/ha [1, 4]: 0 to 29%
- pest or weed control at 140 g/ha [1, 4]: 0 to 29%
- pest or weed control at 35 g/ha [1, 5]: 0 to 29%
- pest or weed control at 70 g/ha [1, 5]: 0 to 29%
- pest or weed control at 140 g/ha [1, 5]: 0 to 29%
- pest or weed control at 35 g/ha [1, 6]: 45 to 59%
- pest or weed control at 70 g/ha [1, 6]: 45 to 59%
- pest or weed control at 140 g/ha [1, 6]: 60 to 74%
- pest or weed control at 35 g/ha [1, 7]: 0 to 29%
- pest or weed control at 70 g/ha [1, 7]: 0 to 29%
- pest or weed control at 140 g/ha [1, 7]: 0 to 29%
- pest or weed control at 35 g/ha [1, 8]: 0 to 29%
- pest or weed control at 70 g/ha [1, 8]: 0 to 29%
- pest or weed control at 140 g/ha [1, 8]: 0 to 29%
- pest or weed control at 35 g/ha [2, 9]: 0 to 29%
- pest or weed control at 70 g/ha [2, 9]: 0 to 29%
- pest or weed control at 140 g/ha [2, 9]: 0 to 29%
- pest or weed control at 35 g/ha [2, 10]: 0 to 29%
- pest or weed control at 70 g/ha [2, 10]: 0 to 29%
- pest or weed control at 140 g/ha [2, 10]: 60 to 74%
- pest or weed control at 35 g/ha [2, 11]: 0 to 29%
- pest or weed control at 70 g/ha [2, 11]: 0 to 29%
- pest or weed control at 140 g/ha [2, 11]: 45 to 59%
- pest or weed control at 35 g/ha [2, 12]: 0 to 29%
- pest or weed control at 70 g/ha [2, 12]: 0 to 29%
- pest or weed control at 140 g/ha [2, 12]: 0 to 29%
- pest or weed control at 35 g/ha [2, 13]: 0 to 29%
- pest or weed control at 70 g/ha [2, 13]: 0 to 29%
- pest or weed control at 140 g/ha [2, 13]: 0 to 29%
- pest or weed control at 35 g/ha [2, 14]: 0 to 29%
- pest or weed control at 70 g/ha [2, 14]: 0 to 29%
- pest or weed control at 140 g/ha [2, 14]: 0 to 29%
